Reference: patent US4582827A, “Pesticidal diphenylaziridines” (priority 1983, dated 1986)

What was measured:
[1] = test system: Salmonella typhimurium strains TA 98, TA 100, TA 1535, TA 1537, TA 1538, TA 1978; assay: Ames assay (spot test), revertant colonies; assay type: cell-based
Experimental: This means that aziridine compounds, 1, 10, or 11, will not cause mutations in DNA arising from potential changes in frame shift and/or base pairing. Compounds 1, 10 and 11 were tested for mutagenic properties using the following experimental procedure.
Potential mutagenic and carcinogenic properties of the compounds were evaluated with standard Ames assay procedures (Ames et al, "Mutation Res.", 31, p. 347, 1975). This assay used strains of Salmonella typhimurium selected for sensitivity and specificity in being reverted from a histidine requirement back to prototrophy by a wide variety of mutagens. Potential changes in frameshift were evaluated using strains TA 98, TA 1537 and TA 1538, while changes in base pairing were detected using strains TA 100 and TA 1535. In addition, strain TA 1978 was used, in combination with TA 1538, to evaluate whether the agent killed bacteria by damage to DNA that could be repaired by this strain. Initially, the compounds were screened using the spot test, in which 1000 μgm of material dissolved in 10 μl of DNSO was applied to the middle of the plate.
Dose-response tests were not performed because the results were negative. All the tests were carried out in the presence and absence of an S9 rat liver preparation and contained a positive control (2-acetylaminofluorene,AAF) and a negative control (DMSO).

[2] = test system: tobacco hornworm larvae (newly ecdysed fifth-instar); assay: Topical application to tobacco hornworm larvae; assay type: in vivo, Manduca sexta
Experimental: The test compounds were dissolved either in acetone or hexane and applied to the integument of the test insect with a micro applicator. Newly ecdysed fifth-instar tobacco hornworm larvae weighing between 1-1.5 g were used and toxicity data were obtained in the same way as previously described.

[3] = test system: tobacco hornworm (Manduca sexta) larvae; assay: Tobacco hornworm growth and developmental responses to feeding on diets containing the compounds; assay type: in vivo; conditions: for larval death (words in table) / larval mortality / symptoms of larvae / time until all larvae dead: 5 mM in diet; for oral activity: diet, Example 2; for larval mortality (acute toxicity): in 24-72 hours
Experimental: The compounds produced and described in Example 1 were then tested for pesticidal activity against the tobacco hornworm (Manduca sexta). The screening procedure for these tests began with the larval stage and continued through the pupal and adult stages and finally evaluated egg production. The studies thus permitted the evaluation of the effects of the compounds over several subsequent developmental stages in the total life cycle of the insect, giving estimates of acute toxicity (insecticidalor larvicidal activity) as well as prolonged or delayed effects on development (growth regulation) and reproduction (chemosterilization). The latter are of special importance in conjunction with the integrated pest management approach to insect control.
The test compounds were incorporated into the artificial diet of tobacco hornworm larvae and their subsequent growth and developmental responses were monitored using the following parameters: larval mortality including determination of LD50 values, rate of larval development and weight gain, percent pupation, pupal weight and degree of deformities, percent adult emergence and measures of reproductive capacity such as the number of developed ooctyes, fecundity and fertility. The protocol for the screening tests has been developed over a number of years by Dahlman et al., Comp. Biochem. Physiol. 51A, 33, (1975); Comp. Biochem. Physiol., 52A, 105 (1975); Ent. Exp. et Appl., 22, 123 (1977); Palumbo and D. L. Dahlman, J. Econ. Entomol. 71, 674 (1978); D. L. Dahlman, Ent. Exp. et Appl., 24, 327 (1978).
Each treatment used 15 newly ecdysed fifth-instar larvae. Death of larvae within a few hours to several days of initial exposure was considered to be acute toxicity. However, the compounds may reduce the maximum size attained by larvae and/or may retard growth so that larvae require additional time to attain their maximum size. Developmental parameters subsequent to the feeding stage also may be affected. […] Mortality may occur in the pupal stage or emerging adults may have wrinkled wings or other deformities. The number of eggs produced by treated females may be reduced and/or unfertile. Although acute toxicity is desirable in the control of any insect, the delayed effects which result in poor survival and reduced reproductive capacity are significant factors in the long-range program of pest management systems.
Continuous cultures of M. sexta are maintained according to the procedures of Yamamoto, J. Econ. Entomol., 62, p. 1427 (1969). Ingredients of the diet formulation include sugar, casein, wheat germ oil, cholesterol, salt mixture, yeast, vitamins, antioxidants and fungal inhibitors, such as ascorbic acid, sorbic acid, formaldehyde and methyl-p-benzoate. All are incorporated into a liquid agar base which, when poured into holding pans, solidifies to form an adequate substrate upon which the insect larvae feed. Nearly any test material can be uniformly incorporated into such a diet. Thus, exposure to experimental compounds can be evaluated during all or any part of the larval stage. In addition, chronic or long-term effects in subsequent life stages can also be monitored.
The results from these studies, in which the 1,2-diphenylaziridines of Example 1 were incorporated singly into the diet of M. sexta at a concentration of 5 mM are presented in the following Table I.

H. virescens = assay: Incorporation into H. virescens diet; assay type: in vivo, Heliothis virescens; conditions: as much as 20 mM in diet
Experimental: Compounds 1, 10, 11, 13 and 14 were incorporated into H. virescens diet in the same manner as M. Sexta. Diets containing as much as 20 mM of each compound had little effect on larval development time, pupal weight or time to adult emergence.

Clc1ccc(N2CC2c2ccccc2Cl)cc1 (centres unmarked) [Compound 11]
Mean number of revertant colonies per plate, TA 98 +S9 ([1]; strain TA 98, +S9): 44.7 colonies per plate
Mean number of revertant colonies per plate, TA 98 -S9 ([1]; strain TA 98, -S9): 27.3 colonies per plate
Mean number of revertant colonies per plate, TA 100 +S9 ([1]; strain TA 100, +S9): 58.3 colonies per plate
Mean number of revertant colonies per plate, TA 100 -S9 ([1]; strain TA 100, -S9): 28.0 colonies per plate
Mean number of revertant colonies per plate, TA 1535 +S9 ([1]; strain TA 1535, +S9): 15.3 colonies per plate
Mean number of revertant colonies per plate, TA 1535 -S9 ([1]; strain TA 1535, -S9): 16.3 colonies per plate
Mean number of revertant colonies per plate, TA 1537 +S9 ([1]; strain TA 1537, +S9): 13.7 colonies per plate
Mean number of revertant colonies per plate, TA 1537 -S9 ([1]; strain TA 1537, -S9): 9.7 colonies per plate
Mean number of revertant colonies per plate, TA 1538 +S9 ([1]; strain TA 1538, +S9): 26.0 colonies per plate
Mean number of revertant colonies per plate, TA 1538 -S9 ([1]; strain TA 1538, -S9): 13.3 colonies per plate
Mean number of revertant colonies per plate, TA 1978 +S9 ([1]; strain TA 1978, +S9): 196.0 colonies per plate
Mean number of revertant colonies per plate, TA 1978 -S9 ([1]; strain TA 1978, -S9): 209.7 colonies per plate
mutagenicity ([1]; with and without S9 / mammalian liver enzymes): not mutagenic
larvae killed ([2]; 500 μg/larva (400 ppm), within 48 hr): 80%
developmental effects ([2]; 250 ppm topical): increased larval developmental time, reduced maximum weight and fewer numbers of eggs
mortality at 250 ppm, 250 µg/g ([2]; Manduca sexta, 250 ppm topical, read-out: larval mortality): 30%
topical activity against the tobacco hornworm (comparison in words) ([2]; topical): less active than Compound 13
% Adult Emergence ([3]; 1 mM in diet): 100%
% Adults ([3]; 1 mM in diet): 100%
% Malformed Adults ([3]; 1 mM in diet): 7%
% Pupation ([3]; 1 mM in diet): 100%
Days to Max Wt ([3]; 1 mM in diet): 5.9 ± .1 days
Max Larval Wt ([3]; 1 mM in diet): 8.29 g
Mean No. of Eggs ([3]; 1 mM in diet): 74 ± 22
No. of female Adults ([3]; 1 mM in diet): 4
Total No. of Adults ([3]; 1 mM in diet): 14
larval weight ([3]; 1 mM in diet): a slight reduction in larval weight
% Adult Emergence ([3]; 2.5 mM in diet): 100%
% Adults ([3]; 2.5 mM in diet): 60%
% Malformed Adults ([3]; 2.5 mM in diet): 0%
% Pupation ([3]; 2.5 mM in diet): 60%
Days to Max Wt ([3]; 2.5 mM in diet): 7.7 ± 0.6 days
Max Larval Wt ([3]; 2.5 mM in diet): 6.77 g
Mean No. of Eggs ([3]; 2.5 mM in diet): 15 ± 7
No. of female Adults ([3]; 2.5 mM in diet): 7
Total No. of Adults ([3]; 2.5 mM in diet): 9
maximum larval weight and mean number of eggs ([3]; 2.5 mM in diet): reduced maximum larval weight and the mean number of eggs
percent pupation ([3]; 2.5 mM in diet): lowered the percent pupation
larval death (words in table) [3]: ALL DEAD WITHIN 24 HR OF START OF TEST
larval mortality [3]: all or nearly all larvae died
symptoms of larvae [3]: extreme agitation of larvae, oral and anal expulsion of fluids and ultimately, death
time until all larvae dead [3]: ≤ 24 h
oral activity [3]: good oral activity
larval mortality (acute toxicity) ([3]; summary of Tables I and II): 100%
time to 100% larval mortality ([3]; summary of Tables I and II): 24 to 72 h
effect on larval development time, pupal weight or time to adult emergence (H. virescens): little effect

FC(F)(F)c1ccc(N2CC2c2ccccc2Cl)cc1 (centres unmarked) [Compound 14]
topical effect ([2]; 2000 μg/larvae (1600 ppm)): ineffective
% Adult Emergence ([3]; 1 mM in diet): 100%
% Adults ([3]; 1 mM in diet): 93%
% Malformed Adults ([3]; 1 mM in diet): 36%
% Pupation ([3]; 1 mM in diet): 93%
Days to Max Wt ([3]; 1 mM in diet): 5.8 ± .1 days
Max Larval Wt ([3]; 1 mM in diet): 9.20 g
Mean No. of Eggs ([3]; 1 mM in diet): 83 ± 13
No. of female Adults ([3]; 1 mM in diet): 9
Total No. of Adults ([3]; 1 mM in diet): 14
% Adult Emergence ([3]; 2.5 mM in diet): 8%
% Adults ([3]; 2.5 mM in diet): 7%
% Malformed Adults ([3]; 2.5 mM in diet): 100%
% Pupation ([3]; 2.5 mM in diet): 93%
Days to Max Wt ([3]; 2.5 mM in diet): 6.6 ± 0.2 days
Max Larval Wt ([3]; 2.5 mM in diet): 8.03 g
Mean No. of Eggs ([3]; 2.5 mM in diet): 0
No. of female Adults ([3]; 2.5 mM in diet): 1
Total No. of Adults ([3]; 2.5 mM in diet): 1
malformed adults ([3]; 2.5 mM in diet): a large percentage
maximum larval weight and mean number of eggs ([3]; 2.5 mM in diet): reduced maximum larval weight and the mean number of eggs
larval death (words in table) [3]: ALL DEAD WITHIN 3 DAYS
larval mortality [3]: all or nearly all larvae died
symptoms of larvae [3]: extreme agitation of larvae, oral and anal expulsion of fluids and ultimately, death
time until all larvae dead [3]: ≥ 48 h
mortality at 2500 µM ([3]; Manduca sexta, po, 2.5 mM in diet, read-out: pupal mortality): 85%
oral activity [3]: good oral activity
larval mortality (acute toxicity) ([3]; summary of Tables I and II): 100%
pupal mortality ([3]; summary of Tables I and II): caused pupal mortality
time to 100% larval mortality ([3]; summary of Tables I and II): 24 to 72 h
effect on larval development time, pupal weight or time to adult emergence (H. virescens): little effect
